Data: patent US6683077B2, “2-Amino-benzoxazinones for the treatment of viral infections” (G.D. Searle & Co., priority 1996, dated 2004)

These compounds were tested on HCMV engineered virus RC256 (assay: microbe, parasite or virus in culture). Details: Human betaherpesvirus 5, Fibroblast, read-out: Antiviral Activity RC256, first value (EC50).
Assay type: cell-based, human cytomegalovirus

Compound | EC50 [µM]
Cc1cccc2nc(N[C@@H](C)C(=O)OC(C)(C)C)oc(=O)c12 [Example 1, N-(5-Methyl-4-oxo-4H-3,1-benzoxazin-2-yl)-L-alanine, tert-butyl Ester] | 100
COC(=O)[C@@H](C)Nc1nc2cccc(C)c2c(=O)o1 [Example 1c, N-(5-Methyl-4-oxo-4H-3,1-benzoxazin-2-yl)-D-alanine, methyl ester] | > 100
Cc1cccc2nc(N[C@@H](CCCCNC(=O)OCc3ccccc3)C(=O)OC(C)(C)C)oc(=O)c12 [Example 1i, N^α-(5-Methyl-4-oxo-4H-3,1-benzoxazin-2-yl)-N^ε-[(phenylmethoxy)carbonyl)-L-lysine, 1,1-dimethylethyl ester] | 9
COC(=O)[C@H](Cc1ccccc1)Nc1nc2cccc(C)c2c(=O)o1 [Example 1k, N-(5-Methyl-4-oxo-4H-3,1-benzoxazin-2-yl)-L-phenylalanine, methyl ester] | > 100
Cc1cccc2nc(N[C@@H](Cc3ccc(O)cc3)C(=O)OC(C)(C)C)oc(=O)c12 [Example 1l, N-(5-Methyl-4-oxo-4H-3,1-benzoxazin-2-yl)-L-tyrosine, 1,1-dimethylethyl ester] | 35
COC(=O)[C@H](Cc1c[nH]c2ccccc12)Nc1nc2cccc(C)c2c(=O)o1 [Example 1m, N-(5-Methyl-4-oxo-4H-3,1-benzoxazin-2-yl)-L-tryptophan, methyl ester] | 56
Cc1cccc2nc(N[C@H](C(=O)OC(C)(C)C)c3ccccc3)oc(=O)c12 [Example 1o, N-(5-Methyl-4-oxo-4H-3,1-benzoxazin-2-yl)-L-phenylglycine, 1,1-dimethylethyl ester] | 10
COC[C@H](Cc1ccccc1)Nc1nc2cccc(C)c2c(=O)o1 [Example 1p, 2-[[2-Methoxy-(1S)-(1-phenylmethyl)ethyl]amino]-5-methyl-4H-3,1-benzoxazin-4-one] | 38
COC(=O)[C@H](Cc1ccc(OC)cc1)Nc1nc2cccc(C)c2c(=O)o1 [Example 1r, N-(5-Methyl-4-oxo-4H-3,1-benzoxazin-2-yl)-O-methyl-L-tyrosine, methyl ester] | 59
COc1ccc(C[C@H](Nc2nc3cccc(C)c3c(=O)o2)C(=O)N(C)Cc2ccccc2)cc1 [Example 1s, αS-[(5-Methyl-4-oxo-4H-3,1-benzoxazin-2-yl)amino]-4-methoxy-N-methyl-N-(phenylmethyl)benzenepropanamide] | 7
COc1ccc(C[C@H](Nc2nc3cccc(OC)c3c(=O)o2)C(=O)N(C)Cc2ccccc2)cc1 [Example 1u, N-[5-Methoxy-4-oxo-4H-3,1-benzoxazin-2-yl]-O-methyl-L-tyrosine, N-methyl-N-phenylmethylamide] | 14
Cc1cccc2nc(N[C@H](C)c3ccccc3)oc(=O)c12 [Example 3c, 5-Methyl-2-[[(1R)-1-phenylethyl]amino]-4H-3,1-benzoxazin-4-one] | 17
COC(=O)[C@H](Cc1ccccc1)Nc1nc2ccc(NC(=O)OC(C)(C)C)c(C)c2c(=O)o1 [Example 6a, N-[6-[[(1,1-Dimethylethoxy]carbonyl]amino]-5-methyl-4-oxo-4H-3,1-benzoxazin-2-yl]-L-phenylalanine, methyl ester] | 71
Cc1c(NC(=O)OC(C)(C)C)ccc2nc(N[C@@H](Cc3ccc(I)cc3)C(=O)N(C)C)oc(=O)c12 [Example 6cc, 1,1-Dimethylethyl[2-[[2-(dimethylamino)-1S-[(4-iodophenyl)methyl]-2-oxoethyl]amino]-5-methyl-4-oxo-4H-3,1-benzoxazin-6-yl]carbamate] | 40
COc1ccc(C[C@H](Nc2nc3ccc(NC(=O)OC(C)(C)C)c(C)c3c(=O)o2)C(=O)N(C)C)cc1 [Example 6d, N-[6-[[(1,1-Dimethylethoxy)carbonyl]amino]-5-methyl-4-oxo-4H-3,1-benzoxazin-2-yl]-O-methyl-L-tyrosine, dimethylamide] | 45
CCN(CC)C(=O)[C@H](Cc1ccccc1)Nc1nc2ccc(NC(=O)OC(C)(C)C)c(C)c2c(=O)o1 [Example 6ee, 1,1-Dimethylethyl[2-[[2-(diethylamino)-2-oxo-1S-(phenylmethyl)ethyl]amino]-5-methyl-4-oxo-4H-3,1-benzoxazin-6-yl]carbamate] | 26
COc1ccc(C[C@H](Nc2nc3ccc(NC(=O)OC(C)(C)C)c(C)c3c(=O)o2)C(=O)NCc2ccccn2)cc1 [Example 6gg, 1,1-Dimethylethyl[2-[[1S-[(4-methoxphenyl)methyl]-2-oxo-2-[[(2-pyridinyl)methyl]amino]ethyl]amino]-5-methyl-4-oxo-4H-3,1-benzoxazin-6-yl]carbamate] | 6.5
COc1ccc(C[C@H](Nc2nc3ccc(NC(=O)OC(C)(C)C)c(C)c3c(=O)o2)C(=O)N2CCOCC2)cc1 [Example 6i, N-[6-[[(1,1-Dimethylethoxy)carbonyl]amino]-5-methyl-4-oxo-4H-3,1-benzoxazin-2-yl]-O-methyl-L-tyrosine, morpholineamide] | 48
Cc1c(NC(=O)OC(C)(C)C)ccc2nc(N[C@H](C)c3ccccc3)oc(=O)c12 [Example 6n, 6-[[(1,1-Dimethylethoxy)carbonyl]amino]-5-methyl-2-[[(1R)-phenylethyl]amino]-4H-3,1-benzoxazin-4-one] | 10
Cc1c(NC(=O)OC(C)(C)C)ccc2nc(N[C@@H](Cc3c[nH]c4ccccc34)C(=O)N(C)C)oc(=O)c12 [Example 6o, N-[6-[[(1,1-Dimethylethoxy)carbonyl]amino]-5-methyl-4-oxo-4H-3,1-benzoxazin-2-yl]-L-tryptophan, dimethylamide] | 59
COC(=O)[C@H](Cc1cc(I)c(OC)c(I)c1)Nc1nc2ccc(NC(=O)OC(C)(C)C)c(C)c2c(=O)o1 [Example 6s, N-[6-[[(1,1-Dimethylethoxy)carbonyl]amino]-5-methyl-4-oxo-4H-3,1-benzoxazin-2-yl]-3,5-diiodo-O-methyl-L-tyrosine, methyl ester] | 18
COC(=O)[C@H](Cc1ccc(I)cc1)Nc1nc2ccc(NC(=O)OC(C)(C)C)c(C)c2c(=O)o1 [Example 6t, N-[6-[[(1,1-Dimethylethoxy)carbonyl]amino]-5-methyl-4-oxo-4H-3,1-benzoxazin-2-yl]-4-iodo-L-phenylalanine, methyl ester] | 17
COC(=O)C(C)(C)Nc1nc2ccc(NC(=O)OC(C)(C)C)c(C)c2c(=O)o1 [Example 6w, N-[6-[[(1,1-Dimethylethoxy)carbonyl]amino]-5-methyl-4-oxo-4H-3,1-benzoxazin-2-yl]-2-aminoisobutyric acid, methyl ester] | > 100
COc1ccc(C[C@H](Nc2nc3ccc(CNC(=O)OC(C)(C)C)c(C)c3c(=O)o2)C(=O)N2CCOCC2)cc1 [Example 7h, 1,1-Dimethylethyl[[2-[[1S-[(4-methoxyphenyl)methyl]-2-(4-morpholinyl)-2-oxoethyl]amino]-5-methyl-4-oxo-4H-3,1-benzoxazin-6-yl]methyl]carbamate] | 16
COc1ccc(C[C@H](Nc2nc3ccc(CNC(=O)OC(C)(C)C)c(C)c3c(=O)o2)C(=O)N(C)Cc2ccccc2)cc1 [Example 7i, 1,1-Dimethylethyl[[2-[[1S-[(4-methoxyphenyl)methyl]-2-[methyl(phenylmethyl)amino]-2-oxoethyl]amino]-5-methyl-4-oxo-4H-3,1-benzoxazin-6-yl]methyl]carbamate] | 30
